# Results taken from US7579006B2, “Method of treating immune pathologies with low dose estrogen” (Oregon Health and Science University, priority 2000, dated 2009).
# “And” between values parts separate entries of the source, which are not always exact repeats. Equal entries are not always repeated.
# What was measured:
# male SJL mice = test: EAE induced with PLP 139-151 in male SJL mice; assay type: in vivo
# DLN cells = test: PLP 139-151 induced cytokine production by DLN cells (ELISA); assay type: in vivo, mice; conditions: 48-72 hours after PLP 139-151 stimulation
# Procedure: Cytokine detection by ELISA. DLN cells were cultured at 4×10^6/ml and stimulated with the appropriate antigen in 24 well culture plates. Cell culture supernatants were recovered between 48-72 hr and frozen at −70° C. until needed for the cytokine assay. Measurement of cytokines was performed by ELISA using cytokine specific capture and detection antibodies (Pharmingen). Standard curves for each assay were generated using recombinant mouse cytokines (Pharmingen), and the concentration of cytokines in the cell supernatants was determined by interpolation from the appropriate standard curve. IFN-γ, TNF-α and IL-12 were chosen as representative Th1 cytokines, while IL-4 and IL-10 were measured as representative Th2 cytokines.
# To determine if low dose estrogen therapy altered cytokine secretion patterns, DLN cells were prepared from individual mice at the peak of clinical EAE and cytokine levels were measured 48-72 hours after in vitro stimulation with PLP 139-151. IFN-γ, IL-12, and TNF-α were used as representative Th1 cytokines while IL-4, and IL-10 were used as representative Th2 cytokines. […] Despite the lack of statistical significance, the trend towards higher Th1 and lower Th2 cytokines points towards a subtle shift in the Th1/Th2 balance. The shift can be seen more clearly when the cytokine response of each individual mouse is plotted as a ratio of IFN-γ to IL-10 (FIG. 5C). There was a marked decrease in the frequency of high Th1 responder mice in the E2 and E3 treated groups when compared to placebo animals that approached significance (p=0.09 for the 5.0 mg E3 treated mice). Additionally, no informative trends were detected in IL-4 secretion (FIG. 5D), and TNF-α secretion was very often below the limits of detection for the assay (<31.25 pg/ml). Modest changes in cytokine responses induced by low dose estrogen therapy were also observed in the B10.PL model and were consistent with the data described for the SJL model.
# [1] = test system: ovariectomized Tg female mice; test: EAE in ovariectomized BV8S2 Tg female mice; assay type: in vivo
# IL-10 KO mice = test: EAE induced with MOG 35-55 in IL-10 KO mice (clinical, histopathology); assay type: in vivo; conditions: 2.5 mg pellet
# Procedure: (§1) Estrogen treatment. Sixty-day release pellets containing 2.5 mg of 17β-estradiol (E2) or vehicle were implanted subcutaneously (s.c) in the scapular region behind the neck using a 12-gauge trochar as described by the manufacturer (Innovative Research of America, Sarasota, Fla.). The mice were implanted one week prior to immunization with MOG 35-55. The concentration of E2 expected in the serum is between 1,500-2,000 pg/ml, which is approximately 5 times less than the levels found during pregnancy.
# (§2) Induction of EAE. C57BL/6 and cytokine deficient mice were inoculated s.c in the flanks with 0.2 ml of an emulsion containing 200 μg of MOG 35-55 in saline and an equal volume of complete Freund's Adjuvant (CFA) containing 400 μg of Mycobacterium tuberculosis H37RA (Difco Laboratories, Detroit, Mich.). Disease induction required i.v. administration of pertussis toxin on the day of immunization (25 ng/mouse) and 2 days later (67 ng/mouse). The mice were assessed daily for clinical signs of EAE according to the 7 point scale described in Example I.
# (§3) Histopathology. Histopathologic assessment of spinal column section was performed essentially as described in Example I, except that sections were stained with either luxol fast blue-periodic acid schiff-hematoxylin or silver nitrate prior to analysis.
# (§4) Statistical analysis. Significant differences in incidence and mortality between untreated and E2 treated mice were assessed by Chi-square analysis. Difference in onset was determined using the two-tailed Student t test. Differences in peak score and cumulative disease index (CDI) were assessed by the Mann-Whitney test. Statistical significance of the frequency of cytokine secreting cells was analyzed using Student's t test for comparisons of two means. Differences in the expression of chemokine and cytokine mRNA were also determined using the Student t test. Values of p<0.05 were considered significant.
# IFN-γ KO mice = test: EAE induced with MOG 35-55 in IFN-γ KO mice (clinical, histopathology); assay type: in vivo; conditions: 2.5 mg pellet
# Procedure: as §1, §2, §3, §4
# Vβ8.2+/CD4+ T CELLS = test: Flow cytometry of adhesion and activation antigens on LN Vβ8.2+/CD4+ T cells; assay type: in vivo, mice; conditions: E2 treated
# Procedure: The regulation of cell adhesion molecules is another possible mechanism by which estrogen treatment controls the migration of inflammatory cells into the CNS. The expression of cell surface adhesion and activation/memory antigens was determined by staining with fluorochrome-labeled antibodies and flow cytometry. No significant differences in the expression of VLA-4, CD44, or CD62L were detected between LN cells from E2 versus control mice with EAE (Table 18). Furthermore, no differences in activation markers (CD69, CD25, FASL, CD40L, CD28) were seen.
# [2] = 0.36 mg pellet, OVX Tg females (Example III)
# [3] = single experiments (Exp #1-#2), listed as E2
# [4] = single experiments (Exp #1-#3), listed as E2
smiles,measurement,setting,value
C[C@]12CC[C@@H]3c4ccc(O)cc4CC[C@H]3[C@@H]1CC[C@@H]2O [17β-estradiol],CDI,male SJL mice; 0.36 mg/pellet,6.4 ± 5.1
same,Incidence,male SJL mice; 0.36 mg/pellet,3/4
same,Incidence (%),male SJL mice; 0.36 mg/pellet,75%
same,Onset,male SJL mice; 0.36 mg/pellet,15.3 ± 3.2 days
same,Peak (disease score),male SJL mice; 0.36 mg/pellet,2.1 ± 2.4
same,Incidence,male SJL mice; 2.5 mg/pellet,0/4
same,Incidence (%),male SJL mice; 2.5 mg/pellet,0%
same,IL-10 secretion by DLN cells,DLN cells,modest increase
same,IL-12 secretion by DLN cells,DLN cells,small decrease
same,secretion of IFN-γ by DLN cells,DLN cells; p>0.10,consistently lower
same,CDI,[1]; [2],40.0 ± 8.5
same,Incidence,[1]; [2],8/11
same,Onset,[1]; [2],16.5 ± 2.3
same,Peak,[1]; [2],2.6 ± 0.6
same,Average CDI (10-30),[1]; Ovx Tg females,40.0 ± 22.1^B
same,Incidence,[1]; Ovx Tg females,11/15
same,Mortality,[1]; Ovx Tg females,4/15
same,Onset,[1]; Ovx Tg females,13.6 ± 1.5
same,Peak,[1]; Ovx Tg females,3.5 ± 0.8
same,CDI,IL-10 KO mice; IL-10 KO,6.5 ± 10.9
same,Incidence,IL-10 KO mice; IL-10 KO,6/17
same,Mortality,IL-10 KO mice; IL-10 KO,0/17
same,Onset,IL-10 KO mice; IL-10 KO,22.0 ± 4.3
same,Peak Score,IL-10 KO mice; IL-10 KO,4.2 ± 0.8
same,Inflammatory foci/section,"IL-10 KO mice; IL-10KO, spinal cord",0.0 ± 0.0 Foci/Section
same,Inflammatory foci/section,"IFN-γ KO mice; IFN-γKO, spinal cord",0.0 ± 0.0 Foci/Section
same,CDI,IFN-γ KO mice; IFNγ KO,19.3 ± 15.9
same,Incidence,IFN-γ KO mice; IFNγ KO,8/10
same,Mortality,IFN-γ KO mice; IFNγ KO,1/10
same,Onset,IFN-γ KO mice; IFNγ KO,21.8 ± 2.7
same,Peak Score,IFN-γ KO mice; IFNγ KO,4.5 ± 1.2
same,"CD28, % of Vβ8.2+/CD4+ T CELLS",Vβ8.2+/CD4+ T CELLS; Exp #1,4.5%
same,"CD40L, % of Vβ8.2+/CD4+ T CELLS",Vβ8.2+/CD4+ T CELLS; Exp #1,0%
same,"CD62lo, % of Vβ8.2+/CD4+ T CELLS",Vβ8.2+/CD4+ T CELLS; Exp #1,47.3%
same,"CD25, % of Vβ8.2+/CD4+ T CELLS, mean",Vβ8.2+/CD4+ T CELLS; mean of experiments,7.4 ± 4.3%
same,"CD44hi, % of Vβ8.2+/CD4+ T CELLS, mean",Vβ8.2+/CD4+ T CELLS; mean of experiments,55.8 ± 13.8%
same,"CD69, % of Vβ8.2+/CD4+ T CELLS, mean",Vβ8.2+/CD4+ T CELLS; mean of experiments,21.6 ± 5.8%
same,"FASL, % of Vβ8.2+/CD4+ T CELLS, mean",Vβ8.2+/CD4+ T CELLS; mean of experiments,1.6 ± 2.1%
same,"VLA-4, % of Vβ8.2+/CD4+ T CELLS, mean",Vβ8.2+/CD4+ T CELLS; mean of experiments,57.5 ± 7.4%
same,"CD25, % of Vβ8.2+/CD4+ T CELLS",Vβ8.2+/CD4+ T CELLS; [3],4.3% and 10.4%
same,"CD69, % of Vβ8.2+/CD4+ T CELLS",Vβ8.2+/CD4+ T CELLS; [3],17.5% and 25.7%
same,"FASL, % of Vβ8.2+/CD4+ T CELLS",Vβ8.2+/CD4+ T CELLS; [3],0.1% and 3.1%
same,"CD44hi, % of Vβ8.2+/CD4+ T CELLS",Vβ8.2+/CD4+ T CELLS; [4],68.8% and 41.2% and 57.3%
same,"VLA-4, % of Vβ8.2+/CD4+ T CELLS",Vβ8.2+/CD4+ T CELLS; [4],64.2% and 58.7% and 49.6%
